Calls of active or inactive are those of the source. The rule behind the calls is not given here.

The values below come from ChEMBL document CHEMBL4266014, “Development of Hybrid Phospholipid Mimics as Effective Agonists for Liver Receptor Homologue-1” (ACS Med Chem Lett, 2018).

Chain of Nuclear receptor subfamily 5 group A member 2 (Homo sapiens) (O00482 whole entry): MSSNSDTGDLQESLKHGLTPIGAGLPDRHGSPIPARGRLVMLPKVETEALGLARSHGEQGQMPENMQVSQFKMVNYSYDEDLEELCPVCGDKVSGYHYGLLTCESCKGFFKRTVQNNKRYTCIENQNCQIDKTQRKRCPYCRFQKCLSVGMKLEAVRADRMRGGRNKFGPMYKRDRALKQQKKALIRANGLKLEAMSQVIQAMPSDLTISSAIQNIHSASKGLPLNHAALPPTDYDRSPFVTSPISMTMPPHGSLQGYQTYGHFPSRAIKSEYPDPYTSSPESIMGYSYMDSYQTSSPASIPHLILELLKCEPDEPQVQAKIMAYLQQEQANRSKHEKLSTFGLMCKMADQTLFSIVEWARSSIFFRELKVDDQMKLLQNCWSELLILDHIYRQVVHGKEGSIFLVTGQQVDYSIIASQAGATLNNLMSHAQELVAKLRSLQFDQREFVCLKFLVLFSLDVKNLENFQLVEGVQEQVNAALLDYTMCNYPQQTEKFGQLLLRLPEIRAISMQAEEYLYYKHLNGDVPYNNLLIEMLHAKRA

This assay concerns the target Nuclear receptor subfamily 5 group A member 2 (Homo sapiens) (UniProt O00482). The assay is described as follows: Agonist activity at recombinant full length human LRH1 expressed in HeLa cells up to 30 uM after 24 hrs by dual-glo luciferase reporter gene assay. The class given is cell-based.
Turning to `C=C(c1ccccc1)[C@@]12CC[C@@H](O)[C@@H]1CC(CCCCCCOP(=O)([O-])OCC[N+](C)(C)C)=C2c1ccccc1`, the result was inactive.

As for `C=C(c1ccccc1)[C@@]12CC[C@@H](O)[C@@H]1CC(CCCC(=O)O)=C2c1ccccc1` (relative stereo), the result was inactive.

Regarding `C=C(c1ccccc1)[C@@]12CC[C@@H](O)[C@@H]1CC(CCCCCCC(=O)O)=C2c1ccccc1` (relative stereo), the outcome was inactive. For `C=C(c1ccccc1)[C@@]12CC[C@@H](O)[C@@H]1CC(CCCCCCCOP(=O)([O-])OCC[N+](C)(C)C)=C2c1ccccc1` the value was “inactive”; for `C=C(c1ccccc1)[C@@]12CC[C@@H](O)[C@@H]1CC(CCCCCC(=O)O)=C2c1ccccc1` (relative stereo), “inactive”. Regarding `C=C(c1ccccc1)[C@@]12CC[C@@H](O)[C@@H]1CC(CCCCC(=O)O)=C2c1ccccc1`, the outcome was inactive. Regarding `C=C(c1ccccc1)[C@@]12CC[C@@H](O)[C@@H]1CC(CCCCCCCCOP(=O)([O-])OCC[N+](C)(C)C)=C2c1ccccc1`, the outcome was inactive.
